Experimental data published in US10351589B2, “3α-ethynyl, 3β-hydroxy-5α-pregnan-20-oxime for use in the treatment of CNS disorders” (Umecrine Cognition AB, priority 2015, dated 2019).

Columns and labels:
Type in all cases: cell-based
α5β3γ2L GABAA receptor [1] = target: T1, α5β3γ2L GABAA receptor (Homo sapiens, UniProt P18507+P28472+P31644); assay: Example 3: comparative patch clamp test of compound and epimer, change in chloride flow through α5β3γ2L GABAA receptor; conditions: for action on the GABA receptor subunit alpha 5: summary of Table 4
T1 construct: expressed in transfected cells; host or cells: HEK-293 (permanently transfected)
Description: (§1) HEK-293 cells, permanently transfected with the human α1β2γ2 GABAA and α5β3γ2 GABAA receptor expressing functional α1β2γ2L and α5β3γ2L GABAA receptors were used. The cell lines permanently expressing a functional human GABAA receptor was made in following steps. The GABAA receptor subunits α1(308-1727 NM_000806), β2 (214-1679 NM_000813), and γ2L (290-1785 NM_198904) including introduced Kozac sequences just before the start codons were subcloned into mammalian expression vectors containing Geneticin, Hygromycin B, and Zeocin resistance, respectively. A HEK-293 cell line stably expressing the three GABAA receptor subunits was produced by transfection of the subunits one at a time. The transfection was followed by selection with the appropriate antibiotics, cell separation with the use of subunit specific antibodies (β2 and γ2), and production of single cell colonies. Produced cell lines were analysed with immunocytochemistry for the three GABAA receptor subunits, followed by selection of a suitable cell line showing for the GABAA receptor normal and good reactivity in a patch-clamp analysis (see below) towards GABA and the GAMS tetrahydrodeoxycorticosterone (THDOC).
(§2) Experiments were carried out to investigate the effect of 3α-ethynyl, 3β-hydroxy, 5α-pregnan-20-oxime on the GABAA receptor function in absence and in presence of the GAMS Tetrahydrodeoxycorticosterone (THDOC) by the Dynaflow™ system on HEK-293 cells. In these tests the protocol was optimized to be similar to the physiological conditions in the synaptic cleft.
(§3) Cell culture: HEK-293 cells, permanently transfected with human α1β2γ2 GABAA and α5β3γ2 GABAA receptor subtypes, were seeded at a density of 3×10^4/25 cm^2 in cellbind culture flask. The transfected cells were used for patch-clamp experiments 3 days after seeding. When using the cells for patch-clamp experiments the cells were washed twice with O2 bubbled EC-solution (see below). About 5 mL EC was then added and the cells were kept in the incubator for about 15 minutes. After 15 minutes the cells come loose from the bottom of the flask and were separated by carefully sucking couple of times with a Pasteur pipette.
(§4) Dynaflow™ system: Dynaflow™ system with resolve chips was used for all patch-clamp experiments. The resolve chips is made of non-sticky materials. The channel width is 150 μm and the height 50 μm. The well volume is 280 μL. Run time at the flow rate of […]. is […]. The pump settings were as follow: Omnifix 2 mL syringe with inner diameter of 9.65 mm was used. The syringe pump flow rate of chip was 26 μL/min.
Electrophysiology: Patch electrodes were pulled from 1.5 mm O.D., 0.86 mm I.D. borosilicate capillary glass without filament. […] The intracellular solution consisted of (in mM): 140 Cs-gluconate, 3.0 NaCl, 1.2 MgCl2, 1.0 EGTA, 10 HEPES. pH was adjusted to 7.2 with CsOH. The extracellular (EC) solution used during recordings contained (in mM): 137 NaCl, 5.0 KCl, 1.0 CaCl2, 1.2 MgCl2, 10 HEPES, 10 glucose. pH was adjusted with NaOH to 7.4. After compensating for the liquid junction potential a steady holding potential of −17 mV was used in all experiments. In physiological conditions the HEK-293 has a resting potential at −40 mV and a low concentration of chloride ions inside the cell. By using the holding potential of −17 mV and the intracellular solution with low chloride ion concentration the chloride ions flux into the cell when the receptors are activated. All experiments were performed at room temperature (21 to 23° C.). A standard protocol was used for all experiments.
GABA applications: By using the Dynaflow equipment it is possible to study transfected HEK-293 during almost physiological conditions. The Dynaflow system allows application of solutions for as short as 40 ms up to minutes in time. Physiologically, in the synaptic cleft, GABA is released in mM range for about 2 ms this is valid for alpha1 receptors. […]

α5β3γ2L GABAA receptor [2] = target: T1, α5β3γ2L GABAA receptor; assay: Patch clamp (Dynaflow) current response mediated by chloride ion flux, α5β3γ2L GABAA receptor in HEK-293 cells; conditions: for Relative effect Mean (%) / Relative effect Median: 200 nM THDOC + 0.3 μM GABA, control set to 0
Description: as §1, §2, §3, §4
(§5) Steroids and GABA: GABA was dissolved in EC-solution by ultrasound for about 40 minutes to the concentration of 10 mM in room temperature. All steroids were dissolved to the concentration of 6 mM in ethanol. The ethanol concentration was 0.1% in all end-solutions, including the wash solution (EC) and the solution with GABA alone. End-solutions are the solutions added into the wells of the chip.
(§6) Electrophysiology: Patch electrodes were pulled from 1.5 mm O.D., 0.86 mm I.D. borosilicate capillary glass without filament. […] The intracellular solution consisted of (in mM): 140 Cs-gluconate, 3.0 NaCl, 1.2 MgCl2, 1.0 EGTA, 10 HEPES. pH was adjusted to 7.2 with CsOH. The extracellular (EC) solution used during recordings contained (in mM): 137 NaCl, 5.0 KCl, 1.0 CaCl2, 1.2 MgCl2, 10 HEPES, 10 glucose. pH was adjusted with NaOH to 7.4. After compensating for the liquid junction potential a steady holding potential of −17 mV was used in all experiments. In physiological conditions the HEK-293 has a resting potential at −40 mV and a low concentration of chloride ions inside the cell. By using the holding potential of −17 mV and the intracellular solution with low chloride ion concentration the chloride ions flux into the cell when the receptors are activated. All experiments were performed at room temperature (21 to 23° C.). A standard protocol was used for all experiments. […]

[3] = target: T2, human α1β2γ2L GABAA receptor (Homo sapiens, UniProt P14867+P18507+P47870); assay: Patch clamp (Dynaflow) current response mediated by chloride ion flux, α1β2γ2L GABAA receptor in HEK-293 cells
T2 construct: expressed in transfected cells
Description: as §1, §2, §3, §4, §5, §6

T2 sequence (P14867 28-456): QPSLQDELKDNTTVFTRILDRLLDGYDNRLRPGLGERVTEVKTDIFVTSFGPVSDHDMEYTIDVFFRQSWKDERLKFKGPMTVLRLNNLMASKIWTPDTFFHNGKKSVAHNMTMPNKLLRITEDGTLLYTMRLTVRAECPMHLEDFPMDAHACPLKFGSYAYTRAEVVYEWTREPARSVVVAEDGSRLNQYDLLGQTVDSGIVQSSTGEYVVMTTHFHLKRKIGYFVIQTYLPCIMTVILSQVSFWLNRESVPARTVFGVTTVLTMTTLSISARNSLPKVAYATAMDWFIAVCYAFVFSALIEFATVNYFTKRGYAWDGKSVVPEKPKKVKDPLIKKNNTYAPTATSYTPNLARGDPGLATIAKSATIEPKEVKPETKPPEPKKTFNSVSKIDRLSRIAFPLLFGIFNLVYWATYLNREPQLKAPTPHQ
T2 sequence (P47870 26-474 isoform P47870-1 limits assumed): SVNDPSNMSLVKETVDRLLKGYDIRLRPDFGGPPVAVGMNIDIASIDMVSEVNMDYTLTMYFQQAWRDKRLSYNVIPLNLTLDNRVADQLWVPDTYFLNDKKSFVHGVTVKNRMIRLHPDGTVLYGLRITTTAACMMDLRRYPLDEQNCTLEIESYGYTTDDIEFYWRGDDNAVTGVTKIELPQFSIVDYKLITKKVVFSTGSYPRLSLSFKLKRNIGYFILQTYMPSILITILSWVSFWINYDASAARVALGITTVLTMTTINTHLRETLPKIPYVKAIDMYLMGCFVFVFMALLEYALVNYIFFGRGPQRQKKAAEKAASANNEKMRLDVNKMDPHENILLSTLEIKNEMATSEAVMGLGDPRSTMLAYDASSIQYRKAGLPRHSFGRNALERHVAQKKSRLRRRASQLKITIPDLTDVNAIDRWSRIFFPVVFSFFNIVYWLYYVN
T2 sequence (P18507 40-475): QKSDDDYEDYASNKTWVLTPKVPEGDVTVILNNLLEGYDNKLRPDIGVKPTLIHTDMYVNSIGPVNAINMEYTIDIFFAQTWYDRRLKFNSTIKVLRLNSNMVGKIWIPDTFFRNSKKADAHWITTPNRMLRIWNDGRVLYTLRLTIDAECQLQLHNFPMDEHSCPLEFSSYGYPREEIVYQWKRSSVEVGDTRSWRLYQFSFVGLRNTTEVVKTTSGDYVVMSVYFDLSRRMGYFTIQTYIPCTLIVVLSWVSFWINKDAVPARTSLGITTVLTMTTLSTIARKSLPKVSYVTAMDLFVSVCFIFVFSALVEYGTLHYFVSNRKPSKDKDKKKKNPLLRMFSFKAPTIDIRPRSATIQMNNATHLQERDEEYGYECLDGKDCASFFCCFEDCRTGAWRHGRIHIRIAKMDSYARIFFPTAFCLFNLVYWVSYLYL
T1 sequence (P31644 32-462): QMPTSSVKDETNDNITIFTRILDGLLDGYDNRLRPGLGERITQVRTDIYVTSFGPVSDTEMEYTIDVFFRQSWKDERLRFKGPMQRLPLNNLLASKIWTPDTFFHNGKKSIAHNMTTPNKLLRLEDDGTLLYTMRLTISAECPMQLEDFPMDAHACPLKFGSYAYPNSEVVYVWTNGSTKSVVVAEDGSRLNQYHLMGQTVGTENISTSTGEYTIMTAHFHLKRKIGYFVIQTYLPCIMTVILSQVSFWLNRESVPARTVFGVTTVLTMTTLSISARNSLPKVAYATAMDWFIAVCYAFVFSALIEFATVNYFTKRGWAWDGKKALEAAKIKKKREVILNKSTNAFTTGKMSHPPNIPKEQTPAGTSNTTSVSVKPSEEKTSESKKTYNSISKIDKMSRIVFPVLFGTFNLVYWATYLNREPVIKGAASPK
T1 sequence (P28472 26-473): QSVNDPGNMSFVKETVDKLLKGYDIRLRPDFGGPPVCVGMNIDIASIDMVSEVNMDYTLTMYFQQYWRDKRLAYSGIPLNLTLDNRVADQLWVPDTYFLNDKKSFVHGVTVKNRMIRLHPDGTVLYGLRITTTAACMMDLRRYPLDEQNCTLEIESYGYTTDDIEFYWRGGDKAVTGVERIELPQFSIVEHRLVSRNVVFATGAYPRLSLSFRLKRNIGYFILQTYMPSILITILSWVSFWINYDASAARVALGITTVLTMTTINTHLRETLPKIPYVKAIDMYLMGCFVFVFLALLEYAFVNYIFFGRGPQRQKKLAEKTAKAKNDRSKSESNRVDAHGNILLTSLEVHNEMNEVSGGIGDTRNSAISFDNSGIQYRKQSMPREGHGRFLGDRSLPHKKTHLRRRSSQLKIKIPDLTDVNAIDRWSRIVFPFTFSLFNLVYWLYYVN
T1 sequence (P18507 40-475): as the sequence (P18507 40-475) above

**Q.** Which results are given for `C#C[C@@]1(O)CC[C@@]2(C)[C@@H](CC[C@@H]3[C@@H]2CC[C@]2(C)[C@@H](C(C)=NO)CC[C@@H]32)C1` [Comparator, 3β-ethynyl, 3α-hydroxy, 5α-pregnan-20-oxime]?
**A.** Mean % (SEM) Compound + GABA, change in chloride flow (α5β3γ2L GABAA receptor [1]; 1 μM steroid, α5β3γ2L): +210 (23) %; Mean % (SEM) Compound + THDOC + GABA, change in chloride flow (α5β3γ2L GABAA receptor [1]; 1 μM steroid, α5β3γ2L): +80 (8) %; Mean % (SEM) Compound + THDOC, change in chloride flow (α5β3γ2L GABAA receptor [1]; 1 μM steroid, α5β3γ2L): +128 (22) %; Mean % (SEM) Compound alone, change in chloride flow (α5β3γ2L GABAA receptor [1]; 1 μM steroid, α5β3γ2L): +50 (12) %; mode of action, Compound + GABA (α5β3γ2L GABAA receptor [1]; 1 μM steroid, α5β3γ2L): agonist; mode of action, Compound + THDOC (α5β3γ2L GABAA receptor [1]; 1 μM steroid, α5β3γ2L): agonist; mode of action, Compound + THDOC + GABA (α5β3γ2L GABAA receptor [1]; 1 μM steroid, α5β3γ2L): agonist; mode of action, Compound alone (α5β3γ2L GABAA receptor [1]; 1 μM steroid, α5β3γ2L): agonist; action on the GABA receptor subunit alpha 5 (α5β3γ2L GABAA receptor [1]): agonist

**Q.** `C#C[C@]1(O)CC[C@@]2(C)C(CCC3C2CC[C@@]2(C)C3CC[C@@H]2/C(C)=N/O)C1` (stereo partly drawn) [Compound, 3α-ethynyl, 3β-hydroxy, 5α-pregnan-20-oxime] was tested. Which “Mean % (SEM) Compound + GABA, change in chloride flow” value (α5β3γ2L GABAA receptor [1]; 1 μM steroid, α5β3γ2L) did it give?
**A.** −19 (2) %

**Q.** What about the “Mean % (SEM) Compound + THDOC + GABA, change in chloride flow” value (α5β3γ2L GABAA receptor [1]; 1 μM steroid, α5β3γ2L) of the same compound?
**A.** −15 (3) %

**Q.** And the “Mean % (SEM) Compound + THDOC, change in chloride flow” value (α5β3γ2L GABAA receptor [1]; 1 μM steroid, α5β3γ2L)?
**A.** −30 (6) %

**Q.** And the “Mean % (SEM) Compound alone, change in chloride flow” value (α5β3γ2L GABAA receptor [1]; 1 μM steroid, α5β3γ2L)?
**A.** no effect

**Q.** What about the “mode of action, Compound + GABA” value (α5β3γ2L GABAA receptor [1]; 1 μM steroid, α5β3γ2L) of the same compound?
**A.** antagonist

**Q.** What about the “mode of action, Compound + THDOC” value (α5β3γ2L GABAA receptor [1]; 1 μM steroid, α5β3γ2L) of the same compound?
**A.** antagonist

**Q.** What about the “mode of action, Compound + THDOC + GABA” value (α5β3γ2L GABAA receptor [1]; 1 μM steroid, α5β3γ2L) of the same compound?
**A.** antagonist

**Q.** And the “action on the GABA receptor subunit alpha 5” value (α5β3γ2L GABAA receptor [1])?
**A.** antagonist

**Q.** And the “Relative effect Mean (%)” value (α5β3γ2L GABAA receptor [2]; 0.1 μM compound)?
**A.** −3.0%

**Q.** What about the “Relative effect Median” value (α5β3γ2L GABAA receptor [2]; 0.1 μM compound) of the same compound?
**A.** −1.6

**Q.** And the “effect on 200 nM THDOC evoked current (direct activation by GAMS)” value (α5β3γ2L GABAA receptor [2]; 200 nM THDOC, no GABA)?
**A.** antagonizing effect

**Q.** What about the “Relative effect Mean (%)” value (α5β3γ2L GABAA receptor [2]; 0.3 μM compound) of the same compound?
**A.** −6.6%

**Q.** What about the “Relative effect Median” value (α5β3γ2L GABAA receptor [2]; 0.3 μM compound) of the same compound?
**A.** −6.9

**Q.** And the “Relative effect Mean (%)” value (α5β3γ2L GABAA receptor [2]; 1 μM compound)?
**A.** −15.2%

**Q.** What about the “Relative effect Median” value (α5β3γ2L GABAA receptor [2]; 1 μM compound) of the same compound?
**A.** −11.0

**Q.** What about the “Relative effect Mean (%)” value (α5β3γ2L GABAA receptor [2]; 3 μM compound) of the same compound?
**A.** −20.7%

**Q.** What about the “Relative effect Median” value (α5β3γ2L GABAA receptor [2]; 3 μM compound) of the same compound?
**A.** −23.6

**Q.** What about the “effect on 200 nM GAMS (THDOC) and 0.3 μM GABA evoked currents” value (α5β3γ2L GABAA receptor [2]; 0.1-3 μM compound) of the same compound?
**A.** clear concentration dependent antagonizing effect

**Q.** What about the “action on α5β3γ2L receptor subtype” value (α5β3γ2L GABAA receptor [2]; all tested situations with GAMS and GABA) of the same compound?
**A.** antagonist

**Q.** And the “Compound + GABA, current response” value (α5β3γ2L GABAA receptor [2]; α5β3γ2)?
**A.** −18.8 ± 2.2

**Q.** What about the “Compound + GAMS + GABA, current response” value (α5β3γ2L GABAA receptor [2]; α5β3γ2, GAMS = THDOC) of the same compound?
**A.** −15.2 ± 2.8

**Q.** And the “Compound + GAMS, current response” value (α5β3γ2L GABAA receptor [2]; α5β3γ2, GAMS = THDOC, no GABA)?
**A.** −29.7 ± 6.5

**Q.** What about the “Compound alone, current response” value (α5β3γ2L GABAA receptor [2]; α5β3γ2, no GABA, no GAMS) of the same compound?
**A.** No effect

**Q.** And the “direct activation of the GABAA receptor in absence of GABA” value ([3]; 1 μM compound)?
**A.** did not activate

**Q.** And the “increase of GABA mediated current response” value ([3]; 1 μM compound, α1β2γ2L)?
**A.** approximately 10%

**Q.** What about the “effect on GABA's opening of the α1β2γ2L GABAA receptor” value ([3]; compound + GABA) of the same compound?
**A.** slight agonistic effect

**Q.** What about the “effect of compound alone on chloride flux” value ([3]; compound alone) of the same compound?
**A.** no enhancing or antagonizing effect

**Q.** What about the “Compound + GABA, current response” value ([3]; α1β2γ2L) of the same compound?
**A.** +11 ± 4

**Q.** What about the “antagonistic effect against the enhancing effect of THDOC” value ([3]; α1β2γ2L receptor) of the same compound?
**A.** no antagonistic effect

**Q.** And the “Compound + GAMS + GABA, current response” value ([3]; α1β2γ2L, GAMS = THDOC)?
**A.** No effect

**Q.** What about the “Compound alone, current response” value ([3]; α1β2γ2L, no GABA, no GAMS) of the same compound?
**A.** No effect
